The values that follow come from BindingDB's records for doi:10.1016/s0960-894x(00)00485-6 (Axys Pharmaceuticals, 2001).

A word on the Kd: it is a measure of binding affinity in units of concentration.

The assay in a line: Dissociation constant of compound was evaluated from its IC50 against tryptase at different concentrations.

Turning to `NC(N)=Nc1ccc(CNC(=O)N2CCN(C(=O)O[C@@H]3CO[C@H]4[C@@H]3OC[C@H]4OC(=O)N3CCN(C(=O)NCc4ccc(N=C(N)N)cc4)CC3)CC2)cc1` [Derivative of APC-2059], the dissociation constant (Kd) came to 0.1 nM.
